Reference: patent publication US20230183218A1, “CONDENSED SUBSTITUTED HYDROPYRROLES AS ANTAGONISTS OF THE MUSCARINIC ACETYLCHOLINE RECEPTOR M4” (Vanderbilt University, priority 2020, published 2023)

Key:
[1] = target: T1, Human M4 (Homo sapiens, UniProt P08173); test: mAChR M4 cell-based functional assay (calcium flux, antagonist mode vs EC80 acetylcholine), human M4/Gqi5/CHO-K1 cells; conditions: for remaining activity at 30 µM: CHO-K1, % ACh maximum at 30 μM, human M4, read-out: Human M4 Emin (%); for IC50: decrease of response elicited by EC80 acetylcholine, human M4/Gqi5 CHO-K1 cells
T1 construct: expressed in transfected cells; host or cells: CHO-K1 (ATCC), stably co-expressing chimeric G protein Gqi5
T1 sequence (P08173 1-479): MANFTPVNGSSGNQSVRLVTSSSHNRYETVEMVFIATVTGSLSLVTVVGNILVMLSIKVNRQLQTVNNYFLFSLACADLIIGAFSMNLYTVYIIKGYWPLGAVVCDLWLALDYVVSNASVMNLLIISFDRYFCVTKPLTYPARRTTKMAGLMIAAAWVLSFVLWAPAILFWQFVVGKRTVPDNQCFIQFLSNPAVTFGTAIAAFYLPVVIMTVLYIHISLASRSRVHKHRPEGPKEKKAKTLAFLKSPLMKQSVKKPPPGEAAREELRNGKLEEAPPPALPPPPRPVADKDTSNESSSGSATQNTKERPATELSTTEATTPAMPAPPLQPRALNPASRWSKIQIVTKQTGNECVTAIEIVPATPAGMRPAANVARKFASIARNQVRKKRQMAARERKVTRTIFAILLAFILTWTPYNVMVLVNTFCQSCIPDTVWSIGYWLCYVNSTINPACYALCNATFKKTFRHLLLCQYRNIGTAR
Experimental: (§1) Human or rat M4 cDNA, along with the chimeric G protein Gqi5, were transfected into Chinese hamster ovary (CHO-K1) cells purchased from the American Type Culture Collection using Lipofectamine2000. M4/Gqi5/CHO cells were grown in Ham's F-12 medium containing 10% heat-inactivated fetal bovine serum (FBS), 20 mM HEPES, 500 μg/mL G418 sulfate, and 200 μg/mL Hygromycin B.
(§2) For high throughput measurement of agonist-evoked increases in intracellular calcium, CHO-K1 cells stably expressing muscarinic receptors were plated in growth medium lacking G418 and hygromycin at 15,000 cells/20 μL/well in Greiner 384-well black-walled, tissue culture (TC)-treated, clear-bottom plates (VWR). Cells were incubated overnight at 37° C. and 5% CO2. The next day, cells were washed using an ELX 405 (BioTek) with assay buffer; the final volume was then aspirated to 20 μL. Next, 20 μL of a 2.3 μM stock of Fluo-4/acetoxymethyl ester (Invitrogen, Carlsbad, Calif.), prepared as a 2.3 mM stock in DMSO and mixed in a 1:1 ratio with 10% (w/v) Pluronic F-127 and diluted in assay buffer, was added to the wells and the cell plates were incubated for 50 min at 37° C. and 5% CO2. Dye was removed by washing with the ELX 405 and the final volume was aspirated to 20 μL. Compound master plates were formatted in a 10 point concentration-response curve (CRC) format (1:3 dilutions) in 100% DMSO with a starting concentration of 10 or 1 mM using a BRAVO liquid handler (Agilent). Test compound CRCs were then transferred to daughter plates (240 nL) using the Echo acoustic plate reformatter (Labcyte, Sunnyvale, Calif.) and then diluted into assay buffer (40 μL) to a 2× stock using a Thermo Fisher Combi (Thermo Fisher Scientific, Waltham, Mass.).
(§3) Calcium flux was measured using the Functional Drug Screening System (FDSS) 6000 or 7000 (Hamamatsu Corporation, Tokyo, Japan) as an increase in the fluorescent static ratio. Compounds were applied to cells (20 μL, 2×) using the automated system of the FDSS at 2 seconds into the protocol and the data were collected at 1 Hz. At 143 s, 10 μL of an EC20 concentration of the muscarinic receptor agonist acetylcholine was added (5×), followed by the addition of 12 μL of an EC80 concentration of acetylcholine at the 268 s time point (5×). Agonist activity was analyzed as a concentration-dependent increase in calcium mobilization upon compound addition. Positive allosteric modulator activity was analyzed as a concentration-dependent increase in the EC20 acetylcholine response. Antagonist activity was analyzed as a concentration-dependent decrease in the EC80 acetylcholine response; for the purposes of the tables herein, an IC50 (inhibitory concentration 50) was calculated as a concentration-dependent decrease of the response elicited by an EC80 concentration of acetylcholine. Concentration-response curves were generated using a four-parameter logistical equation in XLFit curve fitting software (IDBS, Bridgewater, N.J.) for Excel (Microsoft, Redmond, Wash.) or Prism (GraphPad Software, Inc., San Diego, Calif.) or the Dotmatics software platform (Dotmatics, Bishop's Stortford, UK).
(§4) Compounds were synthesized as described above. Activity (IC50 and Emin) was determined in the mAChR M4 cell-based functional assay as described above and the data are shown in Table 2.

[2] = target: T2, Rat M4 (Rattus norvegicus, UniProt P08485); test: mAChR M4 cell-based functional assay (calcium flux, antagonist mode vs EC80 acetylcholine), rat M4/Gqi5/CHO-K1 cells; conditions: for remaining activity at 30 µM: CHO-K1, % ACh maximum at 30 μM, rat M4, read-out: Rat M4 Emin (%); for IC50: decrease of response elicited by EC80 acetylcholine, rat M4/Gqi5 CHO-K1 cells
T2 construct: expressed in transfected cells; host or cells: CHO-K1 (ATCC), stably co-expressing chimeric G protein Gqi5
T2 sequence (P08485 1-478): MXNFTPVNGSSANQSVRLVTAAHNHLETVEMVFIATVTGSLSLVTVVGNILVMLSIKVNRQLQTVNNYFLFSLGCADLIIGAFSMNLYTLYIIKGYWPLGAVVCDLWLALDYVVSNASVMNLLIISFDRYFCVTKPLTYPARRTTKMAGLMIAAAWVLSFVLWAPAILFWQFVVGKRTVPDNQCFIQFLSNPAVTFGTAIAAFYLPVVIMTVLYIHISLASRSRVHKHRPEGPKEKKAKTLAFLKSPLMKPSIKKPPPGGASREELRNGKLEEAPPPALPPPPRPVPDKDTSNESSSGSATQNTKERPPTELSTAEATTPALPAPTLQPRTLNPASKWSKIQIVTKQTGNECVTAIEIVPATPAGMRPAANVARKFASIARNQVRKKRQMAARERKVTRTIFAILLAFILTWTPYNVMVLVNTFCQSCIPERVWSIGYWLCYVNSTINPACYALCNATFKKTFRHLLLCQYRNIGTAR
Experimental: as §1, §2, §3, §4

Fc1ccc(Cl)c(-c2ccc(N[C@H]3C[C@@H]4CN(C5CCCOC5)C[C@@H]4C3)nn2)c1 (stereo partly drawn) [compound 13, (3aR,5s,6aS)-N-(6-(2-chloro-5-fluorophenyl)pyridazin-3-yl)-2-(tetrahydro-2H-pyran-3-yl)octahydrocyclopenta[c]pyrrol-5-amine]
remaining activity at 30 µM [1]: 3%
IC50 [1]: 80.2 nM
remaining activity at 30 µM [2]: 17%
IC50 [2]: 1400 nM

Fc1ccc(Cl)c(-c2ccc(N[C@H]3C[C@@H]4CN(C5COC5)C[C@@H]4C3)nn2)c1 [compound 14, (3aR,5s,6aS)-N-(6-(2-chloro-5-fluorophenyl)pyridazin-3-yl)-2-(oxetan-3-yl)octahydrocyclopenta[c]pyrrol-5-amine]
remaining activity at 30 µM [1]: 21%
IC50 [1]: 5030 nM
remaining activity at 30 µM [2]: 51%
IC50 [2]: > 10000 nM

Fc1ccc(Cl)c(-c2ccc(N[C@H]3C[C@@H]4CN(C5CCSCC5)C[C@@H]4C3)nn2)c1 [compound 15, (3aR,5s,6aS)-N-(6-(2-chloro-5-fluorophenyl)pyridazin-3-yl)-2-(tetrahydro-2H-thiopyran-4-yl)octahydrocyclopenta[c]pyrrol-5-amine]
remaining activity at 30 µM [1]: 7%
IC50 [1]: 10.2 nM
remaining activity at 30 µM [2]: 5%
IC50 [2]: 884 nM

CC1(C)CC(N2C[C@H]3C[C@H](Nc4ccc(-c5cc(F)ccc5Cl)nn4)C[C@H]3C2)CCO1 (stereo partly drawn) [compound 16, (3aR,5s,6aS)-N-(6-(2-chloro-5-fluorophenyl)pyridazin-3-yl)-2-(2,2-dimethyltetrahydro-2H-pyran-4-yl)octahydrocyclopenta[c]pyrrol-5-amine]
remaining activity at 30 µM [1]: 4%
IC50 [1]: 1.9 nM
remaining activity at 30 µM [2]: 4%
IC50 [2]: 97.3 nM

CC1(C)CC(N2C[C@H]3C[C@H](Nc4ccc(-c5cc(F)ccc5Cl)nn4)C[C@H]3C2)CC(C)(C)O1 [compound 18, (3aR,5s,6aS)-N-(6-(2-chloro-5-fluorophenyl)pyridazin-3-yl)-2-(2,2,6,6-tetramethyltetrahydro-2H-pyran-4-yl)octahydrocyclopenta[c]pyrrol-5-amine]
remaining activity at 30 µM [1]: 4%
IC50 [1]: 15 nM
remaining activity at 30 µM [2]: 4%
IC50 [2]: 513 nM

CC(=O)Nc1ccc(-c2ccc(N[C@H]3C[C@@H]4CN(C5CCOC(C)(C)C5)C[C@@H]4C3)nn2)cc1 (stereo partly drawn) [compound 20, N-(4-(6-(((3aR,5s,6aS)-2-(2,2-dimethyltetrahydro-2H-pyran-4-yl)octahydrocyclopenta[c]pyrrol-5-yl)amino)pyridazin-3-yl)phenyl)acetamide]
remaining activity at 30 µM [1]: 3%
IC50 [1]: 18.7 nM
remaining activity at 30 µM [2]: 4%
IC50 [2]: 129 nM

CC1(C)CC(N2C[C@H]3C[C@H](Nc4ccc(-c5ccc6nccn6c5)nn4)C[C@H]3C2)CCO1 (stereo partly drawn) [compound 21, (3aR,5s,6aS)-2-(2,2-dimethyltetrahydro-2H-pyran-4-yl)-N-(6-(imidazo[1,2-a]pyridin-6-yl)pyridazin-3-yl)octahydrocyclopenta[c]pyrrol-5-amine]
remaining activity at 30 µM [1]: 7%
IC50 [1]: 36.2 nM
remaining activity at 30 µM [2]: 8%
IC50 [2]: 808 nM

Cc1nn(C)cc1-c1ccc(N[C@H]2C[C@@H]3CN(C4CCOC(C)(C)C4)C[C@@H]3C2)nn1 (stereo partly drawn) [compound 22, (3aR,5s,6aS)-N-(6-(1,3-dimethyl-1H-pyrazol-4-yl)pyridazin-3-yl)-2-(2,2-dimethyltetrahydro-2H-pyran-4-yl)octahydrocyclopenta[c]pyrrol-5-amine]
remaining activity at 30 µM [1]: 6%
IC50 [1]: 4.52 nM
remaining activity at 30 µM [2]: 11%
IC50 [2]: 6390 nM

O=S(=O)(c1ccccc1)c1ccc(N[C@H]2C[C@@H]3CN(CC4CCOCC4)C[C@@H]3C2)nn1 [compound 23, (3aR,5s,6aS)-N-(6-(phenylsulfonyl)pyridazin-3-yl)-2-((tetrahydro-2H-pyran-4-yl)methyl)octahydrocyclopenta[c]pyrrol-5-amine]
remaining activity at 30 µM [1]: 4%
IC50 [1]: 65.6 nM
remaining activity at 30 µM [2]: 11%
IC50 [2]: 1520 nM

Cc1cc(CN2C[C@H]3C[C@H](Nc4ccc(S(=O)(=O)c5ccccc5)nn4)C[C@H]3C2)nn1C [compound 24, (3aR,5s,6aS)-2-((1,5-dimethyl-1H-pyrazol-3-yl)methyl)-N-(6-(phenylsulfonyl)pyridazin-3-yl)octahydrocyclopenta[c]pyrrol-5-amine]
remaining activity at 30 µM [1]: 8%
IC50 [1]: 906 nM
remaining activity at 30 µM [2]: 35%
IC50 [2]: > 10000 nM

O=S(=O)(c1ccccc1)c1ccc(N[C@H]2C[C@@H]3CN(Cc4ccccn4)C[C@@H]3C2)nn1 [compound 25, (3aR,5s,6aS)-N-(6-(phenylsulfonyl)pyridazin-3-yl)-2-(pyridin-2-ylmethyl)octahydrocyclopenta[c]pyrrol-5-amine]
remaining activity at 30 µM [1]: 6%
IC50 [1]: 436 nM
remaining activity at 30 µM [2]: 26%
IC50 [2]: > 10000 nM

O=S(=O)(c1ccccc1)c1ccc(N[C@H]2C[C@@H]3CN(Cc4ccc5c(c4)OC(F)(F)O5)C[C@@H]3C2)nn1 [compound 26, (3aR,5s,6aS)-2-((2,2-difluorobenzo[d][1,3]dioxol-5-yl)methyl)-N-(6-(phenylsulfonyl)pyridazin-3-yl)octahydrocyclopenta[c]pyrrol-5-amine]
remaining activity at 30 µM [1]: 3%
IC50 [1]: 1000 nM
remaining activity at 30 µM [2]: 14%
IC50 [2]: 3000 nM

O=S(=O)(c1ccccc1)c1ccc(N[C@H]2C[C@@H]3CN(Cc4ccc5c(c4)OCO5)C[C@@H]3C2)nn1 [compound 27, (3aR,5s,6aS)-2-(benzo[d][1,3]dioxol-5-ylmethyl)-N-(6-(phenylsulfonyl)pyridazin-3-yl)octahydrocyclopenta[c]pyrrol-5-amine]
remaining activity at 30 µM [1]: 2%
IC50 [1]: 12.8 nM
remaining activity at 30 µM [2]: 4%
IC50 [2]: 791 nM
